# Measured values: patent US20060234987A1, “Neuroprotective benzo 1 3 oxathiol 2 ones” (priority 2003, published 2006)
# Columns and labels:
# PTP-1B = molecular target: T1, PTP-1B (Homo sapiens, UniProt P18031); experiment: PTP-1B Assay; type: biochemical; conditions: Table 6
# T1 construct: purchased BIOMOL Research Laboratories, Inc
# T1 sequence (P18031 1-435): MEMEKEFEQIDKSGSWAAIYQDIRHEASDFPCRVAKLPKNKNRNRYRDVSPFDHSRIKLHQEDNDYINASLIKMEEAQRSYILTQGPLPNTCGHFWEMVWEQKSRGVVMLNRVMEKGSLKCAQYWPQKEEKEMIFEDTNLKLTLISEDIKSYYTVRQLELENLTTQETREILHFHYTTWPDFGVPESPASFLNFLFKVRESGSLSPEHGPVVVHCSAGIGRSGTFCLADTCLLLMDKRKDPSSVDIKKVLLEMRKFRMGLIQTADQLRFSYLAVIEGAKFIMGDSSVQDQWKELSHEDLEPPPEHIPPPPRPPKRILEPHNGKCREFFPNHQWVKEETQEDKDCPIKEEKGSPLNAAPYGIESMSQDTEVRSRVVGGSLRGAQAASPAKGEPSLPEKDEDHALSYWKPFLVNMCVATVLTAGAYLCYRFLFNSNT
# Procedure: B) PTP-1B Assay: Inhibition of the phosphatase PTP1B was performed according to reported procedures (Puius, Y. A. et a. Proc. Natl. Acad. Sci., 1997, 94, 13420; Liu, F. J. Biol. Chem., 1996, 271, 31290). PTP1B was purchased from BIOMOL Research Laboratories, Inc.
# SCG neurons = experiment: In vitro protection of SCG neurons from cisplatin killing; type: cell-based, Sprague Dawley rats; conditions: Rattus norvegicus, Neuron; cisplatin 3 μg/mL, 48 hours, MTS viability; read-out: IC50 (±1 μM), protection of SCG neurons against cisplatin killing
# Procedure: The mechanism of cisplatin's anti-cancer action is not fully understood, but is believed to involve DNA binding and […]. Cisplatin is toxic to neurons. The addition of cisplatin (3 μg/mL) to cultured SCG neurons induces apoptosis of upwards of 80% of the neurons. The addition of selected compounds of Formula I to the cellular media, concurrently with cisplatin, protects upwards of 100% of the neurons, at drug concentrations ranging from 1 to 50 μM (see Example 64).
# In Vitro Protection of SCG neurons from cisplatin killing. SCG neurons were isolated from day 1 neonatal Sprague Dawley rats, plated at a cell density of 10,000 cells/well, and incubated in Biowhittaker Ultraculture containing 1% Penstrep, 1% L-glutamine, 0.7% ARAC, 3% rat serum, and NGF (50 ng/mL, Calomone Labs) at 37° C., under a 5% CO2 atmosphere. After 5 days the cells were treated with compound and cisplatin (3 μg/mL). Viability was assessed 48 hours later using MTS (Promega) staining.
# SHP2 = molecular target: T2, SHP2 (Homo sapiens, UniProt Q06124); experiment: Phosphatase profile: SHP2 inhibition (DIFMUP fluorescence); type: biochemical; conditions: Table 6
# T2 construct: made in house; host or cells: adenovirus vector
# T2 sequence (Q06124 1-593): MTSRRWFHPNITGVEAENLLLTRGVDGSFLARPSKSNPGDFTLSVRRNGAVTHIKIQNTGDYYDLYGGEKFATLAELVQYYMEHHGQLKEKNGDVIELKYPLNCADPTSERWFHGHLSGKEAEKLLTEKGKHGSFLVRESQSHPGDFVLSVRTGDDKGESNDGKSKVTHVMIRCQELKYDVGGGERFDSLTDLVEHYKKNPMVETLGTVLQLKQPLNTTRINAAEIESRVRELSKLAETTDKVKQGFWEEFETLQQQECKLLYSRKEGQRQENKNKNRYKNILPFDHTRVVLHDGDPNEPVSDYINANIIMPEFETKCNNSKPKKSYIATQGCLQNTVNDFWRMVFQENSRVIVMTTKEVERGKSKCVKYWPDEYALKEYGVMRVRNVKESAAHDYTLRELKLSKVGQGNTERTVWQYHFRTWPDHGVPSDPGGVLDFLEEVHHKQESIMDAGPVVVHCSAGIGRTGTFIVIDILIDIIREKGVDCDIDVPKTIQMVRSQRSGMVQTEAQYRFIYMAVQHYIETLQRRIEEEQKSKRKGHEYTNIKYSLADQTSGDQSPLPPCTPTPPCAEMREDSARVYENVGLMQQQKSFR
# Procedure: A) SHP1 and SHP2: SHP1 and SHP2 adenovirus vectors were prepared. SHP1 and SHP2 were independently over expressed, isolated and purified using FPLC. Enzyme was diluted to 1000-1400 FU/min. Enzyme (45 μL) was uniformLy plated in 96 well plates and treated with serial dilutions of compound (2 μL in DMSO). Compound and enzyme are allowed to incubate for 30 minutes at RT before the addition of DIFMUP (100 μM). The solutions are allowed to incubate at RT for 10 minutes prior to reading the fluorescence, to provide IC50 curves using LSW Data Analysis Tool Box (MDL).
Structure (SMILES),PTP-1B IC50 (PTP-1B),IC50 (SCG neurons),IC50 (SHP2)
"O=c1oc2c(Sc3ccc4ccccc4c3)cc(O)cc2s1 [Compound 23, 5-Hydroxy-7-((2-naphthy)sulfanyl)benzo[1,3]oxathiol-2-one]",no inh.,15 µM,16.5 µM
"O=c1oc2c(Sc3ccc4ccccc4c3)cc(O)c(Sc3ccc4ccccc4c3)c2s1 [Compound 30, 4,7-Bis-((2-naphthyl)sulfanyl)-5-hydroxybenzo[1,3]oxathiol-2-one]",no inh.,–,18.4 µM
